According to patent US4550186A, “Binuclear copper (II) carboxylates formed from amine-carboxyboranes” (Duke University, priority 1983, dated 1985):

Experiments:
Holtzman male rats [1] = experiment: Plasma lipoprotein fractions; format: in vivo, rat; details: 14 days 10 mg/kg/day orally
Procedure: […] On day 14, blood was collected from the abdominal aorta. Serum was separated from whole blood by centrifugation at 3500 rpm. Aliquots (3 ml) were separated by density gradient ultracentrifugation according to the method of Hatch and Lees [Adv. Lipid Res., 6, 33 (1968)] and Havel et al [J. Clin. Invest., 34, 1395 (1955)] into the chylomicrons,very low density lipoproteins, high density lipoproteins and low density lipoproteins. Each of the fractions was analyzed for cholesterol, triglyceride, neutral lipids, phospholipids and protein levels.
Data are expressed in the Table 2-7 as percent of control ± the standard deviation. The probable significant level (P) between each test group and the control group was determined by the Student's "t" test.

Holtzman male rats [2] = experiment: Cholesterol absorption study; format: in vivo, rat; details: rats treated 14 days, over a 24-hr period
Procedure: Holtzman male rats (~400 g) were administered the test drug orally for 14 days at 10 mg/kg/day. On day 13, 10 μCi of 1,2-^3 H(N)-cholesterol (40.7 Ci/mmol) was administered to the rat orally. Twenty-four hours later, the blood was collected and the serum separated by centrifugation. Both the serum and the precipitate were counted.

Appetite / food intake = details: in vivo
[3] = biological target: T1, ribosomal ribonucleic acid polymerase (Mus musculus, UniProt O35134+P70700); experiment: In vivo ribosomal ribonucleic acid polymerase activity
T1 construct: enzymes isolated from nuclei; endogenous in cells; host or cells: Ehrlich ascites tumor cell nuclei, ammonium sulfate fraction
T1 sequence (P52432 whole entry): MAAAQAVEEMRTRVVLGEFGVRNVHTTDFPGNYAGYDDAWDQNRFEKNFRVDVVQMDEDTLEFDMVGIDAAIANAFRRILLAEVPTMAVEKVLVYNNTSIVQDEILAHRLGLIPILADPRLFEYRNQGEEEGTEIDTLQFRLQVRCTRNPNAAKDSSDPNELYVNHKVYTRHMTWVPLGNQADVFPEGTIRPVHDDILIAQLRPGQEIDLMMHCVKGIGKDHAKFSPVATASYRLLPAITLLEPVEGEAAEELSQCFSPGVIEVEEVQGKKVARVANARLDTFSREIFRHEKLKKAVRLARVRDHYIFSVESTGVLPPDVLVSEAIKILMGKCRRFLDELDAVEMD
T1 sequence (Q791N7 whole entry, further chain): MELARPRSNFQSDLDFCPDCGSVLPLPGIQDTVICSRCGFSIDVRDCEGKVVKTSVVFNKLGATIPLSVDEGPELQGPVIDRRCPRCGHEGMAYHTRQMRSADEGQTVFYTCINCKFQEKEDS
T1 sequence (P97304 whole entry, further chain): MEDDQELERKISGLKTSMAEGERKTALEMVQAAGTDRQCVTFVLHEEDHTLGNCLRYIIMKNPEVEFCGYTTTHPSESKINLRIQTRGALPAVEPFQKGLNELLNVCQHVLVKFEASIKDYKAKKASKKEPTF
T1 sequence (Q78WZ7 whole entry, further chain): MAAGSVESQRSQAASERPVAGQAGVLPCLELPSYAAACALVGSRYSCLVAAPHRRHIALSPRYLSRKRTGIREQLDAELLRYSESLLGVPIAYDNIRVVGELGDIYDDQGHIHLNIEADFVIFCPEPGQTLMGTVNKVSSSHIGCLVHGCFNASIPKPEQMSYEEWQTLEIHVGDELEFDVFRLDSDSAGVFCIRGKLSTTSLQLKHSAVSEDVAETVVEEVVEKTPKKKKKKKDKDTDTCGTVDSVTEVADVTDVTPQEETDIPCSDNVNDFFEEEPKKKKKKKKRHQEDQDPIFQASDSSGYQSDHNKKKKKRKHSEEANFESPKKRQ
T1 sequence (P70700 whole entry): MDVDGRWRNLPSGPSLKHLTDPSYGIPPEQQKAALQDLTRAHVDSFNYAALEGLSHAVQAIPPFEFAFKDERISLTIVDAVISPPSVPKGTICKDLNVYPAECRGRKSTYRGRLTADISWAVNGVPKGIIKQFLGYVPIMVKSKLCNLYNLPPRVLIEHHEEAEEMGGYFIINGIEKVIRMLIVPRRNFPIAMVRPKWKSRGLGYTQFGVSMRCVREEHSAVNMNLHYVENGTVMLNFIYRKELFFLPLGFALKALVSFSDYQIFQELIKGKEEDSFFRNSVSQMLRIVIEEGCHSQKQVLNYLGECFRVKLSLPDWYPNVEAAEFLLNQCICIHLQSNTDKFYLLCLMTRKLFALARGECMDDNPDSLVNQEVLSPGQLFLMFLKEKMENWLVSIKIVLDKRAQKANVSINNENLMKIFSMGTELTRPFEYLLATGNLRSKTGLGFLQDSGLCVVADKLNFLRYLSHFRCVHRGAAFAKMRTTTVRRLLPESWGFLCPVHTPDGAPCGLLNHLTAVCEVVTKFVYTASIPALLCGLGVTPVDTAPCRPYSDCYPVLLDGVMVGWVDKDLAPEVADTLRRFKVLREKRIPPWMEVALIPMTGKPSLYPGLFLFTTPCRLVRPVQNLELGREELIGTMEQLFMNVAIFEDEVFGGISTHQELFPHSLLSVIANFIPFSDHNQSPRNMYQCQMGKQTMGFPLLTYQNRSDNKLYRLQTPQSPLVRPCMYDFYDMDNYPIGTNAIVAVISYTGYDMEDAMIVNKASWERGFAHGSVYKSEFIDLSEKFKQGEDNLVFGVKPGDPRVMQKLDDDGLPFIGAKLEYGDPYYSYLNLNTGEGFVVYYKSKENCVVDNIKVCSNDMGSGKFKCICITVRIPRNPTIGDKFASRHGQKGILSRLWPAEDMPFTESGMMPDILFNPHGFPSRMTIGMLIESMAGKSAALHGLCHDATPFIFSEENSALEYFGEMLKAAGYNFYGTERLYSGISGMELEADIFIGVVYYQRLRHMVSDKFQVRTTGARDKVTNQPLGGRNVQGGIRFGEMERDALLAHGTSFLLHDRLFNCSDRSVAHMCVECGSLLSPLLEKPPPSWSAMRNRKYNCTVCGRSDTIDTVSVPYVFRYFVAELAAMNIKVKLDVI
T1 sequence (O35134 whole entry): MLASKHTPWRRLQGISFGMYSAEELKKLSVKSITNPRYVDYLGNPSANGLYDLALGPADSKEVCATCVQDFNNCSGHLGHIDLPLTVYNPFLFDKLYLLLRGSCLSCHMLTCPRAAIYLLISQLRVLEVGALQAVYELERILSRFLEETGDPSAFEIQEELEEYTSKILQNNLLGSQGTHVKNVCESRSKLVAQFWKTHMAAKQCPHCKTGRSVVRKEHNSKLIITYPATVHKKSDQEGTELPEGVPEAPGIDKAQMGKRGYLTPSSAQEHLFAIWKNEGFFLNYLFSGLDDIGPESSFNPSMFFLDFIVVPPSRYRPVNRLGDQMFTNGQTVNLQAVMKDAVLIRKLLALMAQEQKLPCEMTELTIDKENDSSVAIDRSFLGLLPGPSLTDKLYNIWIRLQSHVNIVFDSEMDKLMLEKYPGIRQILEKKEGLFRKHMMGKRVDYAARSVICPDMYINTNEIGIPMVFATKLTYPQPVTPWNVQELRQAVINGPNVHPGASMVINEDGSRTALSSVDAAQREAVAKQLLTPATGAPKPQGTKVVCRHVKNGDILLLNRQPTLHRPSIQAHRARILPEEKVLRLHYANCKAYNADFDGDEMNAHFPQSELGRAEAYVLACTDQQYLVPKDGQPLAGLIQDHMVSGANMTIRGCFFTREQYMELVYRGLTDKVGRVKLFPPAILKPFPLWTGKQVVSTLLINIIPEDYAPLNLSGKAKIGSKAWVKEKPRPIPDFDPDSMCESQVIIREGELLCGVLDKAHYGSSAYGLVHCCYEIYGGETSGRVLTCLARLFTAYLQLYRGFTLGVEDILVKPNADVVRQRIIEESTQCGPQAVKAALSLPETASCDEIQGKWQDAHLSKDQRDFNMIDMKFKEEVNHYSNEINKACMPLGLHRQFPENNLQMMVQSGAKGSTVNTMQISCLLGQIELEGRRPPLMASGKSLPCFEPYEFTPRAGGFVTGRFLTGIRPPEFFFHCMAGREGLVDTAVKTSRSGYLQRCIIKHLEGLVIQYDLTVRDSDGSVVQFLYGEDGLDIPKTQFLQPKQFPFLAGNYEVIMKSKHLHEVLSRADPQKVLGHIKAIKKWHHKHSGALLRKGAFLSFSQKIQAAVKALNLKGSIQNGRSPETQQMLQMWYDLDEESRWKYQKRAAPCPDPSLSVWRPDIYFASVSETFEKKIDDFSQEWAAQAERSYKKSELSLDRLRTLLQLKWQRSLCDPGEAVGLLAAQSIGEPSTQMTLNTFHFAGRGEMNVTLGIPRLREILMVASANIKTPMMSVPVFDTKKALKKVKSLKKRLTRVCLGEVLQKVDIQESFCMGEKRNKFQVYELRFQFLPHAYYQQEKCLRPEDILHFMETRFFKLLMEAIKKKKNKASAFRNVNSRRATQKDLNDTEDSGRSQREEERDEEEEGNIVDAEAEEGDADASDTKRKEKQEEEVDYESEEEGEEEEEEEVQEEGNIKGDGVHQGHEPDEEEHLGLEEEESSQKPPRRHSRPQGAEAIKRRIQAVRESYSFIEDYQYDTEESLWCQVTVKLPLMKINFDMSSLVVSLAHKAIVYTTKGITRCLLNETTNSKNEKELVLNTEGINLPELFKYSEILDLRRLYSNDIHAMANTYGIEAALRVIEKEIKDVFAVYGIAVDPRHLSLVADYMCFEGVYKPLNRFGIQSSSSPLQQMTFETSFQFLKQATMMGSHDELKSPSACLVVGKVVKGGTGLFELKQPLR
Procedure: (§1) CF1 male mice (~30 g) were implanted with 2×10^6 Ehrlich ascites tumor cells, intraperitoneally on Day 0. Compound I was suspended by homogenation in 0.05% polysorbate.80-water and administered intraperitoneally at 10 and 20 mg/kg for 9 days to determine its effectiveness for inhibition of tumor growth. Mice were sacrificed on Day 10, and the ascites fluid was collected from the peritoneal cavity. The volume and ascrit (packed cell volume) were determined for each animal and the percent inhibition of tumor growth was calculated. For the metabolic studies, mice were treated on Days 8 and 9 with 10 mg/kg of Compound I, intraperitoneally. The animal was sacrificed on Day 10 and the ascites fluid harvested. The in vitro metabolic studies were performed at 0.25, 0.50 and 1 mmol final concentration of Compound I.
In vitro and in vivo nuclear deoxyribonucleic acid polymerase activity was determined on isolated Ehrlich ascites cell nuclei. The incubation was that described by Sawada et al [Can. Res., 34, 3341 (1974)] except that [methyl-^3 H] deoxythymidine triphosphate (82.4 Ci/mmol) was used. The acid insoluble nucleic acid was collected on GF/F filters and counted. Nuclear ribonucleic acid polymerase activities were determined on enzymes isolated from nuclei. […] The acid insoluble ribonucleic acid was collected on nitrocellulose filters and counted.

[4] = tested on: aspartate transcarbamylase; experiment: In vivo aspartate transcarbamylase activity; design: species or system mouse
Procedure: as §1, with “The animal was sacrificed on Day 10 and the ascites fluid harvested. The in vitro metabolic studies were performed at 0.25, 0.50 and 1 mmol final concentration of Compound I.” left out
Carbamyl phosphate synthetase activity was determined using the reaction medium of Kalman et al [Am. […] Citrulline formed from ornithine was measured at 490 nm by the method of Archibald [J. Biol. Chem., 156, 121 (1944)]. […] The ^14 CO2 generated in 15 min was trapped in 1M KOH and counted. Thymidylate synthetase activity was determined using a post-mitochondrial supernatant (9000 g×10 min) and 5 μCi of 5-^3 H-deoxyuridine monophosphate (14 Ci/mmol) according to the method of Kampf et al [ J. Med. Chem., 19, 903 (1976)]. ^14 C-Formate incorporation into purines was determined by the method of Spassova et al [Biochem. Pharmacol., 25, 923 (1976)] using 0.5 μCi of ^14 C-formic acid (52.0 mCi/mmol). […] The Rf value for xanthine monophosphate was scraped and counted. […]

[5] = 10 mg/kg/day I.P. on Days 8 and 9

{Cu[(CH3)3 N.BH2 CO2 ]2.(CH3)3 N.BH2 COOH} [Compound I]
Cholesterol (Holtzman male rats [1]; rat serum Chylomicrons): 88 ± 6 Percent Control | Neutral Lipids (Holtzman male rats [1]; rat serum Chylomicrons): 67 ± 7 Percent Control | Phospholipids (Holtzman male rats [1]; rat serum Chylomicrons): 96 ± 6 Percent Control | Protein (Holtzman male rats [1]; rat serum Chylomicrons): 99 ± 7 Percent Control | Triglyceride (Holtzman male rats [1]; rat serum Chylomicrons): 58 ± 5 Percent Control | Cholesterol (Holtzman male rats [1]; rat serum HDL): 64 ± 5 Percent Control | Neutral Lipids (Holtzman male rats [1]; rat serum HDL): 72 ± 8 Percent Control | Phospholipids (Holtzman male rats [1]; rat serum HDL): 86 ± 7 Percent Control | Protein (Holtzman male rats [1]; rat serum HDL): 108 ± 8 Percent Control | Triglyceride (Holtzman male rats [1]; rat serum HDL): 31 ± 5 Percent Control | Cholesterol (Holtzman male rats [1]; rat serum LDL): 68 ± 6 Percent Control | Neutral Lipids (Holtzman male rats [1]; rat serum LDL): 78 ± 7 Percent Control | Phospholipids (Holtzman male rats [1]; rat serum LDL): 105 ± 6 Percent Control | Protein (Holtzman male rats [1]; rat serum LDL): 101 ± 6 Percent Control | Triglyceride (Holtzman male rats [1]; rat serum LDL): 70 ± 6 Percent Control | Cholesterol (Holtzman male rats [1]; rat serum VLDL): 32 ± 3 Percent Control | Neutral Lipids (Holtzman male rats [1]; rat serum VLDL): 62 ± 5 Percent Control | Phospholipids (Holtzman male rats [1]; rat serum VLDL): 100 ± 7 Percent Control | Protein (Holtzman male rats [1]; rat serum VLDL): 96 ± 7 Percent Control | Triglyceride (Holtzman male rats [1]; rat serum VLDL): 43 ± 4 Percent Control | adsorption of orally administered 3H-cholesterol reduced (Holtzman male rats [2]): 85% | Appetite of the animal (Appetite / food intake): reduced | ribosomal ribonucleic acid polymerase activity [3]: not affected | Ribosmoal ribonucleic acid polymerase activity [3, 5]: 96 ± 11 % Control | Aspartate carbamyl transferase activity suppressed [4]: 11% | Aspartate transcarbamylase activity [4, 5]: 89 ± 8 % Control
